Results as given in patent US4229584A, “Ureylenebis(anionic substituted phenylene carbonyl)imino naphthalene sulfonic acids and naphthalene carboxylic acids and their salts” (American Cyanamid Company, priority 1978, dated 1980).
Counter-ions that a name gives are not always drawn. Like-named read-outs stand apart in the source and are kept apart here.

How the values were obtained:
[1] = test system: whole complement; experiment: In vivo complement inhibition in guinea pigs (whole complement of serum, capillary tube assay); design: species or system guinea pig; conditions: for change in vivo at 200 mg/kg: Cavia porcellus, ip
From the text: (§1) An active inhibitor protects C2 from C1 and C4; (ii) Test, Code 035 (C3-C9 inhibitor)--This test determines the ability of the late components of human complement (C3-C9) to lyse EAC 142 in the presence of appropriate dilutions of the test compound. An active inhibitor protects EAC 142 from lysis by human C3-C9; (iii) Test, Code 036 (C-Shunt inhibitor)--In this test human erythrocytes rendered fragile are lysed in autologous serum via the shunt pathway activated by cobra venom factor in the presence of appropriate dilutions of the test compound. Inhibition of the shunt pathway results in failure of lysis; (iv) Forssman Vasculitis Test--Here, the well known complement dependent lesion, Forssman vasculitis, is produced in guinea pigs by intradermal injection of rabbit anti-Forssman antiserum. The lesion is measured in terms of diameter, edema and hemorrhage and the extent to which a combined index of these is inhibited by prior intraperitoneal injection of the test compound at 200 mg/kg is then reported, unless otherwise stated; (v) Forssman Shock Test--Lethal shock is produced in guinea pigs by an i.v. injection of anti-Forssman antiserum and the harmonic mean death time of treated guinea pigs is compared with that of simultaneous controls; (vi) Complement Level Reduction Test--In this test, the above dosed guinea pigs, or others, are bled for serum and the complement level is determined in undiluted serum by the capillary tube method of U.S. Pat. No. 3,876,376 and compared to undosed control guinea pigs; and (vii) Cap 50 Test--Here, appropriate amounts of the test compound are added to a pool of guinea pig serum in vitro, after which the undiluted serum capillary tube assay referred to above is run. The concentration of compound inhibiting 50% is reported.
With reference to Table I, guinea pigs weighing about 300 g were dosed intravenously (i.v.) or intraperitoneally (i.p.) with 200 mg/kg of the test compound dissolved in saline and adjusted to pH 7-8. […] The serum was tested for whole complement using the capillary tube assay. Percent inhibition was calculated by comparison with simultaneous controls. The results appear in Table I together with results of tests, Code 026, 035, 036, Cap 50, percent inhibition and Forssman shock.

[2] = biological target: T1, human C1 (Homo sapiens, UniProt P09871); experiment: Test, Code 026 (C1 inhibitor): protection of fluid phase human C2 from activated human C1; format: biochemical; conditions: activity in wells, twofold serial dilution; higher well number indicates higher activity
T1 construct: substrate fluid phase human C2, in presence of C4
From the text: as §1
(§2) **Activity in wells, a serial dilution assay. Higher well number indicate
(§3) higher activity. The serial dilutions are twofold.

[3] = test system: shunt pathway; experiment: Test, Code 036 (C-Shunt inhibitor): lysis of human erythrocytes in autologous serum via shunt pathway activated by cobra venom factor; format: cell-based; conditions: activity in wells, twofold serial dilution; higher well number indicates higher activity
From the text: as §1, §2, §3

[4] = test system: late components of human complement (C3-C9); experiment: Test, Code 035 (C3-C9 inhibitor): lysis of EAC 142 by late components of human complement; format: cell-based; conditions: activity in wells, twofold serial dilution; higher well number indicates higher activity
From the text: as §1, §2, §3

[5] = 2 h, intraperitoneal, 200 mg/kg, 120 mins., read-out: In Vivo Activity (Guinea Pig) % Inhibition Intraperitoneal 120 mins.
[6] = 0.5 h, read-out: In Vivo Activity (Guinea Pig) % Inhibition Intraperitoneal 30 mins.
[7] = 1 h, read-out: In Vivo Activity (Guinea Pig) % Inhibition Intraperitoneal 60 mins.
[8] = 2 h, read-out: In Vivo Activity (Guinea Pig) % Inhibition Intraperitoneal 120 mins.
[9] = 0.5 h, intraperitoneal, 200 mg/kg, 30 mins., read-out: In Vivo Activity (Guinea Pig) % Inhibition Intraperitoneal 30 mins.
[10] = 1 h, intraperitoneal, 200 mg/kg, 60 mins., read-out: In Vivo Activity (Guinea Pig) % Inhibition Intraperitoneal 60 mins.

T1 sequence (P09871 16-688): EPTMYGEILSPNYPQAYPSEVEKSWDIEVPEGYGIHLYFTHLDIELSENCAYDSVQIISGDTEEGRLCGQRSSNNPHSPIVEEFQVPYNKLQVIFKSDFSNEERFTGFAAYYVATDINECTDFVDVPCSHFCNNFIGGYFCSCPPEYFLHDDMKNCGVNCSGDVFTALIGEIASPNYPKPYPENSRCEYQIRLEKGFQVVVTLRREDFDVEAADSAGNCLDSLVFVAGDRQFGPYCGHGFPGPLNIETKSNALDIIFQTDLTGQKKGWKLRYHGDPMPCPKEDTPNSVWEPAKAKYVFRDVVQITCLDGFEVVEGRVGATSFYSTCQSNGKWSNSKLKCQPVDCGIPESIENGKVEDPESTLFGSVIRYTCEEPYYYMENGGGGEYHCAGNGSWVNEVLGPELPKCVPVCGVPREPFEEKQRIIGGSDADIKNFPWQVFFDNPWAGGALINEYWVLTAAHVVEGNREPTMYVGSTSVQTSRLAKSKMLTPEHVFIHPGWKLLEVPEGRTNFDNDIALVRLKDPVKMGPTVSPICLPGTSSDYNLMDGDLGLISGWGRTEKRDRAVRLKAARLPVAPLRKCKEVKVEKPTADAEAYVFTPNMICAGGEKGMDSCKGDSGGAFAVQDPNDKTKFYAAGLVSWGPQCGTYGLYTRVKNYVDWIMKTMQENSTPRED
T1 sequence (P00736 18-705 partner): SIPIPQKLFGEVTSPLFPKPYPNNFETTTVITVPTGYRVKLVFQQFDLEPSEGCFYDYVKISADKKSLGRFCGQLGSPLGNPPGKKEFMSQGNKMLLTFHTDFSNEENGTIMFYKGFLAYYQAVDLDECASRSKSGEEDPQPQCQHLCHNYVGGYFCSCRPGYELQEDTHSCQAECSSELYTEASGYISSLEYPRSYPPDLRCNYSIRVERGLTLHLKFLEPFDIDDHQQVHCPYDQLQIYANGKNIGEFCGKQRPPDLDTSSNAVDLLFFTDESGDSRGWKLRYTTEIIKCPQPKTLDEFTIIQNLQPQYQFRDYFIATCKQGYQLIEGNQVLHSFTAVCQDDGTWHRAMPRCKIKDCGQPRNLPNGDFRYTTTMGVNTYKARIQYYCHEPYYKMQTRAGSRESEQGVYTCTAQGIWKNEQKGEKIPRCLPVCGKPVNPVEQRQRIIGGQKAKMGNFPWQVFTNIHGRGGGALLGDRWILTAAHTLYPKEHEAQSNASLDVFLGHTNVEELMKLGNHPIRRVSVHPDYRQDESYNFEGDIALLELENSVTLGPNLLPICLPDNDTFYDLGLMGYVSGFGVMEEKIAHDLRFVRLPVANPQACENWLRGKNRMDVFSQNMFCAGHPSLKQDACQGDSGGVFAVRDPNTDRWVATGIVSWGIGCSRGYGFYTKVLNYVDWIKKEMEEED
T1 sequence (P02745 23-245 partner): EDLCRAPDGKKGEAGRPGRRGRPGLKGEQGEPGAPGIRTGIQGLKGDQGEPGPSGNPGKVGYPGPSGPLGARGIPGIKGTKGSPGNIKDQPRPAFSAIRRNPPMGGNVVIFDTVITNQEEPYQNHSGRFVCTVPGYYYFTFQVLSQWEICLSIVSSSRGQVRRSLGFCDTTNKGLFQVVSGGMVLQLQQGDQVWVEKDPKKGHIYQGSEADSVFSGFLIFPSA
T1 sequence (P02746 28-253 partner): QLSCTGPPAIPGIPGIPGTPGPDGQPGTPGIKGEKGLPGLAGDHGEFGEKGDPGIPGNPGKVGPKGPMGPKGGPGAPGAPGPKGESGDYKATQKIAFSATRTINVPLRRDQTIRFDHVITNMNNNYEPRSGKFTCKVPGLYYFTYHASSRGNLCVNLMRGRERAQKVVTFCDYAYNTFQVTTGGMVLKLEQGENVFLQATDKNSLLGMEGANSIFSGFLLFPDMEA
T1 sequence (P02747 29-245 partner): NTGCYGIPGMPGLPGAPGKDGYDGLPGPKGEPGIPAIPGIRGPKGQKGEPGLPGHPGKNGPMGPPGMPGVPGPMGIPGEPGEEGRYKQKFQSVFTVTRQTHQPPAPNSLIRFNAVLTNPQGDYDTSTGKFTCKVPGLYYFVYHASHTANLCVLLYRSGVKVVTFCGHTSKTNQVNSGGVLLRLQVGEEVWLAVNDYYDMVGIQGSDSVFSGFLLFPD

SMILES	change in vivo at 200 mg/kg [1, 5] [%]	C1 026* Wells [2]	Shunt Inhibition 036* Wells [3]	C-Late 035* Wells [4]	change in vivo at 200 mg/kg [1, 6] [%]	change in vivo at 200 mg/kg [1, 7] [%]	change in vivo at 200 mg/kg [1, 8] [%]	change in vivo at 200 mg/kg [1, 9] [%]	change in vivo at 200 mg/kg [1, 10] [%]	In Vivo Activity (Guinea Pig) % Inhibition Intravenous 2 mins. ([1]; 200 mg/kg) [%]	In Vivo Activity (Guinea Pig) % Inhibition Intravenous 30 mins. ([1]; 200 mg/kg, 30 mins.) [%]	In Vivo Activity (Guinea Pig) % Inhibition Intravenous 120 mins. ([1]; 200 mg/kg, 120 mins.) [%]
O=C(Nc1cc(C(=O)O)cc(C(=O)Nc2cc(S(=O)(=O)O)cc3cc(S(=O)(=O)O)cc(O)c23)c1)Nc1cc(C(=O)O)cc(C(=O)Nc2cc(S(=O)(=O)O)cc3cc(S(=O)(=O)O)cc(O)c23)c1 [3,3'-(Carbonyldiimino)bis[5-[(8-hydroxy-3,6-disulfo-1-naphthalenyl)aminocarbonyl]]benzoic acid tetrasodium salt]	-69	+6 Wells	–	–	–	–	–	–	–	–	–	–
O=C(Nc1cc(C(=O)O)cc(C(=O)Nc2ccc(S(=O)(=O)O)c3cc(S(=O)(=O)O)cc(O)c23)c1)Nc1cc(C(=O)O)cc(C(=O)Nc2ccc(S(=O)(=O)O)c3cc(S(=O)(=O)O)cc(O)c23)c1 [3,3'-Ureylenebis{5-[(8-hydroxy-4,6-disulfo-1-naphthenyl)aminocarbonyl]-benzoic acid}tetrasodium salt]	-94	+4 Wells	+2 Wells	–	–	–	–	–	–	–	–	–
O=C(Nc1ccc(C(=O)Nc2cc3ccccc3cc2C(=O)[O-])c(S(=O)(=O)[O-])c1)Nc1ccc(C(=O)Nc2cc3ccccc3cc2C(=O)[O-])c(S(=O)(=O)[O-])c1.[Na+].[Na+].[Na+].[Na+] [3,3'-{Ureylenebis[(2-sulfo-4,1-phenylene)carbonylimino]}di-2-naphthoic acid tetrasodium salt]	–	N	N	+3 Wells	–	–	–	–	–	–	–	–
O=C(Nc1ccc(C(=O)Nc2ccc(S(=O)(=O)[O-])c3cc(S(=O)(=O)[O-])cc(O)c23)c(S(=O)(=O)[O-])c1)Nc1ccc(C(=O)Nc2ccc(S(=O)(=O)[O-])c3cc(S(=O)(=O)[O-])cc(O)c23)c(S(=O)(=O)[O-])c1.[Na+].[Na+].[Na+].[Na+].[Na+].[Na+] [4,4'-Ureylenebis[(2-sulfo-4,1-phenylenecarbonyl)imino]bis[5-hydroxy-1,7-naphthalenedisulfonic acid] hexasodium salt]	–	+7 Wells	+5 Wells	N	1	-3	-24	–	–	–	–	–
O=C(Nc1ccc(C(=O)Nc2ccc(S(=O)(=O)[O-])c3cccc(S(=O)(=O)O)c23)c(S(=O)(=O)[O-])c1)Nc1ccc(C(=O)Nc2ccc(S(=O)(=O)O)c3cccc(S(=O)(=O)O)c23)c(S(=O)(=O)[O-])c1.[Na+].[Na+].[Na+] [4,4'-{Ureylenebis[(2-sulfo-4,1-phenylenecarbonyl)imino]}-di-1,5-naphthalenedisulfonic acid trisodium salt]	–	+7 Wells	+1 Wells	N	-10	6	-6	–	–	–	–	–
O=C(Nc1ccc(C(=O)Nc2cc(S(=O)(=O)[O-])cc3cc(S(=O)(=O)[O-])ccc23)c(S(=O)(=O)[O-])c1)Nc1ccc(C(=O)Nc2cc(S(=O)(=O)[O-])cc3cc(S(=O)(=O)[O-])ccc23)c(S(=O)(=O)[O-])c1.[Na+].[Na+].[Na+].[Na+].[Na+].[Na+] [4,4'-{Ureylenebis[(2-sulfo-4,1-phenylenecarbonyl)imino]}-di-2,7-naphthalenedisulfonic acid hexasodium salt]	–	–	N	–	–	–	–	–	–	–	–	–
O=C(Nc1ccc(C(=O)Nc2cc(S(=O)(=O)O)cc3cc(S(=O)(=O)O)cc(O)c23)c(S(=O)(=O)O)c1)Nc1ccc(C(=O)Nc2cc(S(=O)(=O)O)cc3cc(S(=O)(=O)O)cc(O)c23)c(S(=O)(=O)O)c1 [4,4'-{Ureylenebis[(2-sulfo-4,1-phenylenecarbonyl)imino]}bis-[5-hydroxy-2,7-naphthalenedisulfonic acid]hexasodium salt]	-74	–	–	–	–	–	–	-35	-41	-98	-81	-63
Cc1ccc(NC(=O)Nc2ccc(C)c(C(=O)Nc3ccc(S(=O)(=O)[O-])c4cc(S(=O)(=O)[O-])cc(O)c34)c2)cc1C(=O)Nc1ccc(S(=O)(=O)[O-])c2cc(S(=O)(=O)[O-])cc(O)c12.[Na+].[Na+].[Na+].[Na+] [4,4'-{Ureylenebis[(6-methyl-3,1-phenylenecarbonyl)imino]}-bis[5-hydroxy-1,7-naphthalenedisulfonic acid], tetrasodium salt]	–	–	+2 Wells	–	–	–	–	–	–	–	–	–
O=C(Nc1ccc(C(=O)Nc2cccc3cc(S(=O)(=O)O)cc(O)c23)c(S(=O)(=O)O)c1)Nc1ccc(C(=O)Nc2cccc3cc(S(=O)(=O)O)cc(O)c23)c(S(=O)(=O)O)c1 [5,5'-{Ureylenebis[(2-sulfo-4,1-phenylenecarbonyl)imino]}-bis[4-hydroxy-2-naphthalenesulfonic acid]tetrasodium salt]	-58	+2 Wells	–	–	–	–	–	-26	0	–	–	–
O=C(Nc1ccc(S(=O)(=O)[O-])c(C(=O)Nc2cc(S(=O)(=O)[O-])cc3cc(S(=O)(=O)[O-])cc(S(=O)(=O)[O-])c23)c1)Nc1ccc(S(=O)(=O)[O-])c(C(=O)Nc2cc(S(=O)(=O)[O-])cc3cc(S(=O)(=O)[O-])cc(S(=O)(=O)[O-])c23)c1.[Na+].[Na+].[Na+].[Na+].[Na+].[Na+].[Na+].[Na+] [8,8'-[Carbonylbis[imino[(-6-sulfo-3,1-phenylene)]carbonylimino]]-bis-1,3,6-naphthalenetrisulfonic acid octasodium salt]	–	+7 Wells	+1 Wells	–	-23	-58	-71	–	–	–	–	–
O=C(Nc1ccc(C(=O)Nc2cc(S(=O)(=O)[O-])cc3cc(S(=O)(=O)[O-])cc(S(=O)(=O)[O-])c23)cc1)Nc1ccc(C(=O)Nc2cc(S(=O)(=O)[O-])cc3cc(S(=O)(=O)[O-])cc(S(=O)(=O)[O-])c23)cc1.[Na+].[Na+].[Na+].[Na+].[Na+].[Na+] [8,8'-[Ureylenebis(4,1-phenylenecarbonylimino)]di-1,3,6-naphthalenetrisulfonic acid hexasodium salt]	–	+4 Wells	–	–	-18	-21	-33	–	–	-71	-28	-16
O=C(Nc1ccc(C(=O)Nc2ccc(S(=O)(=O)[O-])c3cc(S(=O)(=O)[O-])cc(S(=O)(=O)[O-])c23)c(S(=O)(=O)[O-])c1)Nc1ccc(C(=O)Nc2ccc(S(=O)(=O)[O-])c3cc(S(=O)(=O)[O-])cc(S(=O)(=O)[O-])c23)c(S(=O)(=O)[O-])c1.[Na+].[Na+].[Na+].[Na+].[Na+].[Na+].[Na+].[Na+] [8,8'-{Ureylenebis[(2-sulfo-4,1-phenylenecarbonyl)imino]}di-1,3,5-naphthalenetrisulfonic acid octasodium salt]	–	–	–	+1 Wells	-32	-31	-51	–	–	-89	-45	-29
O=C(Nc1ccc(C(=O)Nc2cc(S(=O)(=O)O)cc3cc(S(=O)(=O)O)cc(S(=O)(=O)O)c23)c(S(=O)(=O)O)c1)Nc1ccc(C(=O)Nc2cc(S(=O)(=O)O)cc3cc(S(=O)(=O)O)cc(S(=O)(=O)O)c23)c(S(=O)(=O)O)c1 [8,8'-{Ureylenebis{[(2-sulfo-4,1-phenylene)carbonyl]imino}}-1,3,6-naphthalenetrisulfonic acid octasodium salt]	-8	–	–	–	–	–	–	4	17	-85	-53	-24
